Experimental data from the supplement of paper PMC10307832.

How the values were obtained:
Assay in all cases: relative viability (nuclei count vs DMSO), 5 days (fraction); higher = more cells survive
CUDC-101 + Linsitinib = compound: C#Cc1cccc(Nc2ncnc3cc(OC)c(OCCCCCCC(=O)NO)cc23)c1 [CUDC-101] + C[C@]1(O)C[C@@H](c2nc(-c3ccc4ccc(-c5ccccc5)nc4c3)c3c(N)nccn32)C1 [Linsitinib] (partner 1 µM)
Summary of the method: (§1)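 Values are medians from duplicate plates. Each reflects relative viability, defined as the nuclei count of treated wells over that of vehicle wells. Lung cancer cell lines in 1536-well plates were pin-tool dosed one day after seeding with one drug alone or with a fixed anchor-drug dose plus five library-drug doses (not always all listed) in √10 steps, then fixed, stained and imaged at 4× after 5 days.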

CUDC-101 + Tozasertib = compound: C#Cc1cccc(Nc2ncnc3cc(OC)c(OCCCCCCC(=O)NO)cc23)c1 [CUDC-101] + Cc1cc(Nc2cc(N3CCN(C)CC3)nc(Sc3ccc(NC(=O)C4CC4)cc3)n2)n[nH]1 [Tozasertib] (partner 0.1 µM)
Summary of the method: as §1

NVP-TAE684 + Olaparib = compound: COc1cc(N2CCC(N3CCN(C)CC3)CC2)ccc1Nc1ncc(Cl)c(Nc2ccccc2S(=O)(=O)C(C)C)n1 [NVP-TAE684] + O=C(c1cc(Cc2n[nH]c(=O)c3ccccc23)ccc1F)N1CCN(C(=O)C2CC2)CC1 [Olaparib] (partner 8 µM)
Summary of the method: as §1

Vandetanib + Pictilisib = compound: COc1cc2/c(=N/c3ccc(Br)cc3F)nc[nH]c2cc1OCC1CCN(C)CC1 [Vandetanib] + CS(=O)(=O)N1CCN(Cc2cc3nc(-c4cccc5[nH]ncc45)nc(N4CCOCC4)c3s2)CC1 [Pictilisib] (partner 1 µM)
Summary of the method: as §1

Cell Line	relative viability (CUDC-101 + Linsitinib; first compound 0.01 µM)	relative viability (CUDC-101 + Linsitinib; first compound 0.03162 µM)	relative viability (CUDC-101 + Linsitinib; first compound 0.1 µM)	relative viability (CUDC-101 + Linsitinib; first compound 0.3162 µM)	relative viability (CUDC-101 + Linsitinib; first compound 1 µM)	relative viability (CUDC-101 + Tozasertib; first compound 0.01 µM)	relative viability (CUDC-101 + Tozasertib; first compound 0.03162 µM)	relative viability (CUDC-101 + Tozasertib; first compound 0.1 µM)	relative viability (CUDC-101 + Tozasertib; first compound 0.3162 µM)	relative viability (CUDC-101 + Tozasertib; first compound 1 µM)	relative viability (NVP-TAE684 + Olaparib; first compound 0.2 µM)	relative viability (NVP-TAE684 + Olaparib; first compound 0.6325 µM)	relative viability (NVP-TAE684 + Olaparib; first compound 2 µM)	relative viability (Vandetanib + Pictilisib; first compound 0.02 µM)	relative viability (Vandetanib + Pictilisib; first compound 0.06325 µM)	relative viability (Vandetanib + Pictilisib; first compound 0.2 µM)	relative viability (Vandetanib + Pictilisib; first compound 0.6325 µM)	relative viability (Vandetanib + Pictilisib; first compound 2 µM)
NCI-H3122	1.06	1.01	1.03	1.08	0.989	0.373	0.451	0.391	0.321	0.386	0.342	0.225	0.111	0.668	0.603	0.58	0.61	0.601
NCI-H1734	0.948	0.796	0.858	0.961	0.704	0.256	0.257	0.23	0.216	0.202	0.668	0.665	0.461	0.43	0.435	0.479	0.449	0.43
EPLC-272H	1.25	1.1	1.16	1.05	1.08	0.216	0.284	0.306	0.231	0.121	0.321	0.577	0.162	0.363	0.311	0.121	0.355	0.166
RERF-LC-KJ	0.965	1.01	0.839	0.849	0.694	0.516	0.505	0.476	0.442	0.371	1.1	0.758	0.547	0.583	0.543	0.577	0.448	0.394
HARA	1.01	0.804	0.908	0.512	0.349	0.116	0.108	0.101	0.0938	0.0704	0.76	0.891	0.299	0.385	0.248	0.337	0.369	0.392
NCI-H1651	1.14	0.866	0.996	1.04	0.912	0.622	0.712	0.613	0.788	0.585	0.181	0.186	0.173	0.621	0.519	0.478	0.528	0.374
NCI-H2405	1.03	0.702	0.981	1.14	0.851	0.748	0.809	0.725	0.756	0.611	0.923	0.825	0.481	0.535	0.264	0.44	0.45	0.222
NCI-H596	1.08	0.923	1.03	1.13	0.882	0.632	0.716	0.871	0.917	0.819	0.66	0.595	0.537	0.395	0.35	0.323	0.398	0.352
NCI-H2009	1.21	1.14	1.19	1.2	1.17	0.8	0.695	0.778	0.801	0.639	0.657	0.665	0.634	0.78	0.669	0.79	0.828	0.81
LU99A	0.565	0.484	0.482	0.54	0.242	0.273	0.269	0.242	0.277	0.273	0.283	0.266	0.24	0.304	0.327	0.336	0.29	0.306
PC-3 [JPC-3]	0.987	0.91	0.789	0.667	0.383	0.89	0.847	0.834	0.61	0.314	1.32	1.02	–	0.725	0.709	0.622	0.423	0.359
HCC-44	0.549	0.617	0.678	0.675	0.555	0.795	0.899	0.999	0.917	0.7	0.997	1.07	0.905	0.58	0.543	0.556	0.613	0.634
H3255	1.02	0.751	0.38	0.5	0.203	0.649	0.591	–	0.549	0.135	0.539	0.532	0.407	0.469	0.392	0.386	0.263	0.126
LXF-289	0.989	1.04	0.979	0.992	0.781	0.168	0.184	0.219	0.211	0.143	0.931	1.08	0.487	0.828	0.771	0.773	0.792	0.798
PC-14	0.986	0.782	1.01	0.683	0.137	0.656	0.544	0.391	0.528	0.115	0.237	0.255	0.0711	0.676	0.594	0.35	0.0812	0.0658
NCI-H661	0.64	0.487	0.74	0.681	0.675	0.356	0.331	0.362	0.342	0.248	0.771	0.788	0.625	0.381	–	0.373	0.382	0.347
EKVX	1.17	0.84	0.938	1.07	0.709	0.392	0.32	0.394	0.366	0.295	0.868	0.678	0.464	0.404	0.396	0.404	0.363	0.213
NCI-H322M	0.882	0.76	0.741	0.803	0.737	0.477	0.476	0.45	0.413	0.339	0.715	0.723	0.558	0.397	0.517	0.498	0.459	0.351

Cell Line	relative viability (CUDC-101 + Linsitinib; first compound 0.01 µM)	relative viability (CUDC-101 + Linsitinib; first compound 0.03162 µM)	relative viability (CUDC-101 + Linsitinib; first compound 0.1 µM)	relative viability (CUDC-101 + Linsitinib; first compound 0.3162 µM)	relative viability (CUDC-101 + Linsitinib; first compound 1 µM)	relative viability (CUDC-101 + Tozasertib; first compound 0.01 µM)	relative viability (CUDC-101 + Tozasertib; first compound 0.03162 µM)	relative viability (CUDC-101 + Tozasertib; first compound 0.1 µM)	relative viability (CUDC-101 + Tozasertib; first compound 0.3162 µM)	relative viability (CUDC-101 + Tozasertib; first compound 1 µM)	relative viability (NVP-TAE684 + Olaparib; first compound 0.2 µM)	relative viability (NVP-TAE684 + Olaparib; first compound 0.6325 µM)	relative viability (NVP-TAE684 + Olaparib; first compound 2 µM)	relative viability (Vandetanib + Pictilisib; first compound 0.02 µM)	relative viability (Vandetanib + Pictilisib; first compound 0.06325 µM)	relative viability (Vandetanib + Pictilisib; first compound 0.2 µM)	relative viability (Vandetanib + Pictilisib; first compound 0.6325 µM)	relative viability (Vandetanib + Pictilisib; first compound 2 µM)
SK-MES-1	1.17	1.13	1.05	1.1	0.742	0.976	0.945	0.942	0.809	0.502	0.794	0.668	0.405	0.379	0.294	0.319	0.259	0.22
NCI-H1355	0.887	0.761	0.822	0.739	0.645	0.518	0.539	0.5	0.544	0.384	0.657	0.713	0.499	0.438	0.367	0.425	0.496	0.482
NCI-H2126	0.742	0.646	0.733	0.648	0.586	0.892	0.79	0.807	0.867	0.743	0.88	–	0.712	0.461	0.46	0.468	0.418	0.481
NCI-H520	0.997	–	1.05	0.982	0.485	0.443	0.434	0.449	0.401	0.304	0.327	0.332	0.198	0.289	0.258	0.245	0.345	0.263
NCI-H1755	1.04	0.988	0.994	0.986	0.968	0.478	0.563	0.572	0.602	0.584	0.926	0.965	–	0.427	0.381	0.254	0.426	0.369
NCI-H358	0.849	0.71	0.793	0.646	0.323	0.103	0.117	0.127	0.101	0.114	0.637	0.579	0.275	0.285	0.328	0.331	0.316	0.241
NCI-H2228	0.894	0.652	0.625	0.722	0.949	0.255	0.237	0.263	0.317	0.194	0.36	0.384	0.109	0.383	0.402	–	0.399	0.297
NCI-H2347	1.09	0.91	0.963	1.05	0.98	0.561	0.614	0.608	0.583	0.499	0.573	0.57	0.49	0.849	0.601	0.571	0.462	0.788
HCC-15	0.786	0.853	0.857	0.954	0.743	0.383	0.368	0.314	0.322	0.238	0.745	0.748	0.577	0.795	0.678	0.696	0.767	0.796
NCI-H23	0.667	0.51	0.606	0.661	0.435	0.34	0.315	0.288	0.384	0.574	0.312	0.211	0.187	0.423	0.427	0.509	0.424	0.506
LC-2-ad	0.86	0.846	0.882	0.802	0.472	0.445	0.47	0.449	0.326	0.276	0.75	0.675	0.464	0.503	0.4	0.167	0.324	0.19
LCLC-97TM1	0.211	0.158	0.201	0.166	0.151	0.197	0.357	0.152	0.195	0.104	0.443	0.326	0.154	0.282	0.2	0.206	0.171	0.188
HOP-62	1.06	0.992	0.842	0.853	0.596	0.343	0.379	0.399	0.405	0.321	0.291	0.33	0.811	0.608	0.504	0.669	0.495	0.734
NCI-H2085	0.808	0.985	0.914	0.929	0.792	0.708	0.786	0.882	0.726	0.705	0.819	0.754	0.714	0.428	0.421	0.398	0.363	0.513
NCI-H2087	0.916	0.87	1.01	0.882	0.812	0.292	0.243	0.233	0.195	0.223	0.646	0.598	0.503	1	0.694	0.922	0.935	0.964
NCI-H1395	1.13	1.05	0.963	1.07	0.888	0.809	0.717	0.747	0.744	0.627	0.463	0.422	0.384	0.687	0.61	0.656	0.697	0.418
COR-L 105	1.08	0.934	0.921	0.874	0.396	0.266	0.353	0.342	0.27	0.311	0.695	0.595	–	0.408	0.405	0.412	0.344	0.335
